Laboratory results reported in patent US11117888B2, “Irreversible inhibitors of pyruvate kinase M2 and the use thereof” (China Medical University, priority 2020, dated 2021).

Legend:
[1] = test system: LNCaP prostate cancer cells; test: MTT cell viability assay, LNCaP; format: cell-based; settings: Homo sapiens, 24 hours
Text: (§1) Cell lines, cell culture, biochemical reagents, and antibodies. MiaPaCa-2, AsPC-1, and Panc-1 human pancreatic cancer cells, MCF-7 and MDA-MB-231 breast cancer cells, SCC4 and SCC2059 oral cancer cells, PC-3 and LNCaP prostate cancer cells, H157, H460, H1975, PC-9 and H1650 lung cancer cells were obtained from the American Type Culture Collection (ATCC, Manassas, Va.). All these cells were maintained in recommended growth medium (RPMI 1640 or DMEM) supplemented with 10% fetal bovine serum (FBS) (Invitrogen, Carlsbad, Calif., USA) and antibiotics at 37° C. in a humidified incubator containing 5% CO2. For SILAC experiments, PC-9 cells were grown in SILAC DMEM medium (Thermo Fisher) supplemented with 10% dialyzed FBS and 100 μg/mL each of unlabeled L-arginine and L-lysine (light medium) or ^13C/^15N stable isotope-labeled L-arginine and L-lysine (heavy medium). […]
(§2) Cell viability assays. Drug effects on cell viability was assessed by 3-(4,5-dimethylthiazol-2-yl)-2,5-diphenyltetrazolium bromide ([…]) assays. […] The medium was then removed from each well and replaced with DMSO to dissolve the reduced MTT dye for subsequent colorimetric measurement of absorbance at 560 nm. Cell viabilities are expressed as percentages of viable cells relative to the corresponding vehicle-treated control group.

PC-9 lung cancer cells = test: MTT cell viability assay, PC-9; format: cell-based; settings: Homo sapiens, PC-9 (mutant EGFR), 24 hours
Text: as §1, §2

H1975 lung cancer cells = test: MTT cell viability assay, H1975; format: cell-based; settings: Homo sapiens, NCI-H1975, H1975 (mutant EGFR), 24 hours
Text: as §1, §2

H460 lung cancer cells = test: MTT cell viability assay, H460; format: cell-based; settings: Homo sapiens, NCI-H460, H460 (wild type EGFR), 24 hours
Text: as §1, §2

H157 lung cancer cells = test: MTT cell viability assay, H157; format: cell-based; settings: Homo sapiens, NCI-H157, H157 (wild type EGFR), 24 hours
Text: as §1, §2

[2] = test system: PKM2, EGFR, Stat3, β-catenin in PC-9 cells; test: Immunoblot analysis of oncogenic effectors in PC-9 cells; format: cell-based, human; settings: Western blot, 24 hours
Experimental: Immunoblot analysis. PC-9 cells were seeded into 6 cm dish at a concentration of 5×10^5 cells/mL. After 24 hours, cells were treated with 0-1 μM compound 1 or DMSO alone for 24 hours. The cells were harvested at 24 hours, and protein extractions were carried out. The protein lysate was subjected to 10% SDS-PAGE and transferred to a nitrocellulose membrane (GE Healthcare Life Sciences). Protein expression was analyzed by Western blotting using primary antibodies against PKM2, EGFR, p-STAT3, STAT3, p-β-catenin (Cell Signaling Technology), β-catenin (Santa Cruz Biotechnology) and β-actin (Sigma-Aldrich), followed by incubation with horseradish peroxidase-conjugated secondary (Jackson ImmunoResearch Laboratories). Specific proteins were detected by chemiluminescence using ECL Plus Western Blotting Detection Reagents (GE Healthcare Biosciences).

PC-9 xenograft tumors = test: PC-9 xenograft tumor model in nude mice; format: in vivo; settings: 10 mg/kg once daily i.p., 25 days
Experimental: Pursuant to the above in vitro findings, we evaluated the in vivo tumor-suppressive efficacy of compound 1 in an ectopic PC-9 xenograft tumor model. Athymic nude mice bearing established subcutaneous PC-9 tumors were randomly divided into two groups (n=8 for each group; initial tumor volume: vehicle, 50±11 mm^3; compound 1, 53±6 mm^3), and were treated once daily with compound 1 at 10 mg/kg or vehicle via intraperitoneal injection.
In vivo efficacy study. Athymic nude mice were purchased from the National Laboratory Animal Center (Taipei, Taiwan). To assess the effect of compound 1 on tumor growth in vivo, 1×10^6 PC-9 cells were mixed with Matrigel (BD Biosciences) at a 1:1 ratio and subcutaneously implanted into nude mice (6-week-old, female; a total of 16 mice). After 7 days, mice were treated with once daily vehicle or 10 mg/kg compound 1 in sterile water containing 0.5% methylcellulose (w/v)+0.1% Tween-80 (v/v) (n=8 for each group). Tumors were measured with calipers and volumes were calculated using V=(width^2×length)×0.52. On day 25, tumors were excised and weighed. Tumor specimens were collected, and expression of target proteins in tumor lysates were analyzed by Western blotting, which were quantified by ImageJ. according to a published online procedure. (https://openwetware.org/wiki/Protein_Quantification_Using_ImageJ).

PKM2 = PKM2 (Homo sapiens, UniProt P14618); test: Gel-based ABPP competition for PKM2 binding in PC-9 cells; design: PC-9 cells were pre-incubated with 1 μM compound 1 for 1 hour, and treated with compound 2; endogenous in cells; host or cells: PC-9 cells; settings: 1 μM compound 1, 1 hour, Western blot
Chain of PKM2 (P14618 whole entry): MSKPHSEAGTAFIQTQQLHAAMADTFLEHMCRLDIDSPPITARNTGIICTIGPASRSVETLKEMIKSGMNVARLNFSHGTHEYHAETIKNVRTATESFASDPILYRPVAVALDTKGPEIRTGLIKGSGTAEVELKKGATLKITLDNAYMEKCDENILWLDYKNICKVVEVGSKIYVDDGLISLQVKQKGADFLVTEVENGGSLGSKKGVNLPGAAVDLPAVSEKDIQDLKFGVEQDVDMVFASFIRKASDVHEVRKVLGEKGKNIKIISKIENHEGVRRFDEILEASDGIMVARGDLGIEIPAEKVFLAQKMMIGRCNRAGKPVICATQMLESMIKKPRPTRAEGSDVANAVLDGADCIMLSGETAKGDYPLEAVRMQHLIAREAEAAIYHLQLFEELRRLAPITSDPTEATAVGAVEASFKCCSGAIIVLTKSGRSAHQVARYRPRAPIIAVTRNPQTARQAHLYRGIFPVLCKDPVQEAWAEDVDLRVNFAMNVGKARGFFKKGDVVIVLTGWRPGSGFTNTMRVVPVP
Experimental: As this cell-based kinase assay could not rule out the involvement of PKM1, we examined the abilities of compound 1 to inhibit the kinase activity of recombinant PKM2 (SAE0021, Sigma-Aldrich) versus recombinant PKM1 (SRP0415, Sigma-Aldrich) using a commercial PKM assay kit. […] In brief, PC-9 cells were exposed to different concentrations of compound 2 in the presence of compound 1 (1 μM) for 1 hour, lysed, and the cell lysates were treated with biotin-azide, followed by streptavidin bead pulldown under the aforementioned conditions. […] The antigen of compound 1 was prepared by coupling this small molecule with cysteine residues of ovalbumin, which was then used for immunization in guinea pigs.
Gel-based ABPP. PC-9 cells (2×10^6) were seeded in DMEM growth medium in 10-cm plates. After overnight incubation, the growth medium was replaced with fresh medium, followed by the addition of 1 μM compound 1 or DMSO control. After 1 hour, the ABPP probe compound 2 at 0.5, 1 and 2 μM was then added, and incubated at 37° C. for an additional 1 hour. The cell lysates were subjected to copper-catalyzed Click reaction, and biotin-tagged proteins were treated with 50 μL of streptavidin-coupled magnetic beads for 16 hours at 4° C. After incubation, cell lysates were washed by PBS containing 0.5% SDS three times to remove nonspecific binding. […]

Compound: C#CC(=O)Nc1ccc(-n2nc(CCC(=O)NC)cc2-c2ccc(-c3ccc(C(F)(F)F)cc3)cc2)cc1 [compound 1, N-(4-(3-(3-(Methylamino)-3-oxopropyl)-5-(4′-(trifluoromethyl)-[1,1′-biphenyl]-4-yl)-1H-pyrazol-1-yl)phenyl)propiolamide]
- IC50 [1]: > 2000 nM
- IC50 (PC-9 lung cancer cells): 500 nM
- IC50 (H1975 lung cancer cells): 1000 nM
- IC50 (H460 lung cancer cells): 1500 nM
- IC50 (H157 lung cancer cells): > 2000 nM
- expression and/or phosphorylation of PKM2, EGFR, Stat3, β-catenin [2]: downregulated the expression of PKM2 and EGFR, accompanied by parallel decreases in the phosphorylation and expression of Stat3 and β-catenin
- expression of PKM2 and binding partners in tumor lysates (PC-9 xenograft tumors; Western blot): significant suppression of the expression of PKM2 and its binding partners EGFR, Stat3, and β-catenin
- body weight loss (PC-9 xenograft tumors; relative to control): No appreciable weight loss
- tumor growth (tumor volume and tumor weight) (PC-9 xenograft tumors; relative to vehicle): significantly suppressed tumor growth
- competition with ABPP probe compound 2 for PKM2 binding (PKM2): binding of the ABPP probe to PKM2 was attenuated
